This test relates to SK-N-SH human neuroblastoma cells. As to the kind of experiment: Serum deprivation/JC-1 mitochondrial membrane potential (MMP) assay. Format: cell-based. The conditions noted are these: Homo sapiens; for Emax: SK-N-SH, percent maximal intensity in JC-1 ratio normalized to 10 μM dimebolin, read-out: JC-1 max %; for EC50: SK-N-SH cells, serum deprivation ~18 hours, JC-1 ratio normalized to peak value for 10 μM dimebolin, single curve fit to mean data of n=2-3, read-out: EC50. Here is the method:
SK-N-SH human neuroblastoma cells obtained from American Type Culture Collection (Rockville, Md.) were maintained in the log phase of growth in Minimal Essential Media (MEM), 10% heat inactivated fetal calf serum and 100 units/mL antibiotic-antimycotic (AA). Cells were cultured and maintained in a humidified incubator at 37° C. under 5% CO2 and 95% air. Cells were trypsinized (0.25%) and subcultured every 3 days and used from 15-18 passages. All cell culture supplies were obtained from Invitrogen (Carlsbad, Calif.).
SK-N-SH cells were plated 2-3 days in advance at a concentration of 50,000 cells/well onto collagen coated black-walled 96 well plates (Becton-Dickinson, Bedford, Mass.) in a total volume of 200 μL. On day of experimental treatment, the media containing serum was aspirated from each well and rinsed once with MEM/1% AA without serum. The cells then were incubated overnight in 100 μL of MEM/1% AA (no serum) with and without dimebolin or novel chemical entities overnight for ˜18 hours. The following day, JC-1 dye (5,5′,6,6′-tetrachloro-1,1′,3,3′-tetraethylbenzimidazolcarbocyanide) was diluted 1:10 into MEM media according to the JC-1 Mitochondrial Membrane Potential Assay Kit: (Cayman Chemical Company, Ann Arbor, Mich.) and then 10 μL of the JC-1 dye solution was added to each well. The plates were centrifuged for 5 minutes at 400×g at room temperature followed by 35 minute incubation at 37° C. The plates were washed twice with 200[…] μL of provided Assay Buffer followed an addition of 100 μL of Assay Buffer to each well. The plates were read with an excitation and emission of 560 nm and 595 nM for red fluorescence and with an excitation and emission of 485 nm and 535 nM for green fluorescence to determine the final JC-1 value taking the red to green fluorescence ratio. This assay is based on change in mitochondrial membrane potential (MMP) using this lipophilic cationic dye, JC-1, by monitoring the changes in the ratio of red to green fluorescence as the MMP depolarizes. This change in MMP reflects the health of the cell with healthy, viable cells have a high JC-1 ratio and high MMP whereas apoptotic, unhealthy cells have a low JC-1 ratio or low MMP.
For the ability of compounds to reverse the stress due to serum deprivation and increase the JC-1 ratio, the percent maximal intensity in JC-1 ratio was normalized to that induced by the peak value for 10 μM dimebolin and plotted against the compound concentration to calculate EC50 values and to control for plate-to-plate variability. Concentration-response data were analyzed using GraphPad Prism (San Diego, Calif.); the EC50 values were derived from a single curve fit to the mean data of n=2-3, in duplicates.
All compounds were dissolved in dimethyl sulfoxide at 10 mM stock solutions and tested at a concentration that the dimethyl sulfoxide levels never exceeded 1%.

For orientation: EC50 means the midpoint of the concentration-response curve.

As to `Cc1ccc2c(c1)[C@H]1[C@H]3CC4C[C@H](CN(C4)C3)[C@H]1N2CCc1ccc(C)nc1` (relative stereo) [Example 194, (1R*,7R*,7aS*,12bR*)-11-methyl-8-[2-(6-methylpyridin-3-yl)ethyl]-1,4,5,6,7,7a,8,12b-octahydro-2H-1,5:3,7-dimethanoazonino[5,4-b]indole], the Emax was 321% and the EC50 came to 2.18 µM.
Consider `Cc1ccc2c(c1)[C@@H]1[C@@H](C3CCN1CC3)N2CCc1ccc(C)nc1` (relative stereo) [Example 213, (4aR*,9bR*)-8-methyl-5-[2-(6-methylpyridin-3-yl)ethyl]-2,3,4,4a,5,9b-hexahydro-1,4-ethanopyrido[3,2-b]indole], for which the Emax stood at 177% and the EC50 is 5.43 µM.
Regarding `Cc1ccc(/C=C\n2c3c(c4cc(C)ccc42)[C@@H]2CC[C@H](C3)N2C)cc1` (single isomer, unassigned) [Example 61], the Emax was found to be 211% and the EC50 is 4.37 µM.
For `COc1ccc2c(c1)c1c(n2CCc2ccc(Cl)cc2)C[C@@H]2CC[C@H]1N2C` (single isomer, unassigned) [Example 93], the Emax turned out to be 186% and the EC50 came to 4.81 µM.
Taken in the same sequence, the figures for `CC(C)c1ccc2c(c1)c1c(n2CCc2ccc(Cl)cc2)C[C@H]2CC[C@@H]1N2C` (single isomer, unassigned) [Example 100] were 140% and 3.63 µM.
As to `Cc1ccc2c(c1)c1c(n2CCc2ccc(C)nc2)C[C@H]2CCC[C@@H]1N2` (single isomer, unassigned) [Example 120], the Emax was found to be 197% and the EC50 is 3.4 µM.
In the case of `Cc1ccc2c(c1)c1c(n2CCc2ccc(C)nc2)C[C@@H]2CCC[C@H]1N2` (single isomer, unassigned) [Example 121], the Emax turned out to be 129% and the EC50 is 3.63 µM.
Taken in the same sequence, the figures for `Cc1ccc2c(c1)c1c(n2CCc2ccccc2C)C[C@H]2CCC[C@@H]1N2` (single isomer, unassigned) [Example 127] were 151% and 3.69 µM.
The like results for `Cc1ccc2c(c1)[C@@H]1CN3CCC(CC3)[C@@H]1N2CCc1ccc(C)nc1` (single isomer, unassigned) [Example 159] were, in that order, 240% and 2.67 µM.
The like results for `Cc1ccc2c(c1)[C@H]1CN3CCC(CC3)[C@H]1N2CCc1ccc(C)nc1` (single isomer, unassigned) [Example 160] were, in that order, 194% and 1.61 µM.
In the case of `O=c1ccnc2ccc(-n3c4c(c5ccccc53)[C@H]3CC[C@@H](C4)N3)cn12` (single isomer, unassigned) [Example 283], the Emax was 170% and the EC50 was found to be 6.02 µM.
Taken in the same sequence, the figures for `O=c1ccnc2ccc(-n3c4c(c5ccccc53)[C@@H]3CC[C@H](C4)N3)cn12` (single isomer, unassigned) [Example 284] were 108% and 7.62 µM.
The like results for `Cc1ccc2c(c1)c1c(n2-c2ccc(-c3ccc(I)cc3)nn2)CC2CCC1N2C` (stereo not drawn) [Example 3, 5-[6-(4-iodophenyl)pyridazin-3-yl]-2,11-dimethyl-5,6,7,8,9,10-hexahydro-7,10-epiminocyclohepta[b]indole] were, in that order, 191% and 5.11 µM.
For `CCN1C2CCC1c1c(n(CCc3ccc(C)nc3)c3ccc(C)cc13)C2` (stereo not drawn) [Example 12, 11-ethyl-2-methyl-5-[2-(6-methylpyridin-3-yl)ethyl]-5,6,7,8,9,10-hexahydro-7,10-epiminocyclohepta[b]indole], the Emax worked out at 181% and the EC50 was determined as 5.58 µM.
As for `Cc1ccc2c(c1)c1c(n2CCc2ccc(C)nc2)CC2CCC1N2CC(F)(F)F` (stereo not drawn) [Example 14, 2-methyl-5-[2-(6-methylpyridin-3-yl)ethyl]-11-(2,2,2-trifluoroethyl)-5,6,7,8,9,10-hexahydro-7,10-epiminocyclohepta[b]indole], the Emax amounted to 110% and the EC50 was 4.79 µM.
Consider `CCOC(=O)N1[C@H]2CC[C@@H]1c1c(n(CCc3ccc(C)nc3)c3ccc(C)cc13)C2` [Example 16, ethyl (7S,10R)-2-methyl-5-[2-(6-methylpyridin-3-yl)ethyl]-5,6,7,8,9,10-hexahydro-7,10-epiminocyclohepta[b]indole-11-carboxylate], for which the Emax was found to be 129% and the EC50 is 8.38 µM.
The like results for `Cc1ccc2c(c1)c1c(n2CCc2ccc(C)nc2)CC2CCC1N2C(=O)c1ccc(Cl)cc1` (stereo not drawn) [Example 17, 11-(4-chlorobenzoyl)-2-methyl-5-[2-(6-methylpyridin-3-yl)ethyl]-5,6,7,8,9,10-hexahydro-7,10-epiminocyclohepta[b]indole] were, in that order, 345% and 3.53 µM.
As to `Cc1ccc2c(c1)c1c(n2CCc2ccc(C)nc2)CC2CCC1N2S(=O)(=O)c1ccc(C(F)(F)F)cc1` (stereo not drawn) [Example 18, 2-methyl-5-[2-(6-methylpyridin-3-yl)ethyl]-11-{[4-(trifluoromethyl)phenyl]sulfonyl}-5,6,7,8,9,10-hexahydro-7,10-epiminocyclohepta[b]indole], the Emax is 307% and the EC50 came to 3.19 µM.
Consider `Cc1ccc2c(c1)c1c(n2/C=C/c2ccc(C)nc2)C[C@@H]2CC[C@H]1N2C` [Example 23, (7S,10R)-2,11-dimethyl-5-[(E)-2-(6-methylpyridin-3-yl)vinyl]-5,6,7,8,9,10-hexahydro-7,10-epiminocyclohepta[b]indole], for which the Emax was found to be 332% and the EC50 amounted to 3.32 µM.
With `Cc1ccc2c(c1)c1c(n2/C=C\c2ccc(C)nc2)C[C@@H]2CC[C@H]1N2C` [Example 24, (7S,10R)-2,11-dimethyl-5-[(Z)-2-(6-methylpyridin-3-yl)vinyl]-5,6,7,8,9,10-hexahydro-7,10-epiminocyclohepta[b]indole], the Emax is 221% and the EC50 worked out at 2.26 µM.
`Cc1ccc2c(c1)c1c(n2CCc2cnc(C)nc2)C[C@@H]2CC[C@H]1N2C` [Example 32, (7S,10R)-2,11-dimethyl-5-[2-(2-methylpyrimidin-5-yl)ethyl]-5,6,7,8,9,10-hexahydro-7,10-epiminocyclohepta[b]indole]: the Emax came to 53% and the EC50 was found to be 17.3 µM.
Taken in the same sequence, the figures for `Cc1ccc2c(c1)c1c(n2CCc2ccc(C)nn2)C[C@H]2CC[C@@H]1N2C` [Example 33, (7R,10S)-2,11-dimethyl-5-[2-(6-methylpyridazin-3-yl)ethyl]-5,6,7,8,9,10-hexahydro-7,10-epiminocyclohepta[b]indole] were 97% and 5.81 µM.
The like results for `Cc1ccc2c(c1)c1c(n2CCc2cnc(C)cn2)C[C@H]2CC[C@@H]1N2C` [Example 34, (7R,10S)-2,11-dimethyl-5-[2-(5-methylpyrazin-2-yl)ethyl]-5,6,7,8,9,10-hexahydro-7,10-epiminocyclohepta[b]indole] were, in that order, 175% and 18.1 µM.
For `Cc1ccc2c(c1)c1c(n2CCc2scnc2C)CC2CCC1N2C` (stereo not drawn) [Example 35, 2,11-dimethyl-5-[2-(4-methyl-1,3-thiazol-5-yl)ethyl]-5,6,7,8,9,10-hexahydro-7,10-epiminocyclohepta[b]indole], the Emax was determined as 78% and the EC50 turned out to be 6.71 µM.
Taken in the same sequence, the figures for `Cc1ccc2c(c1)c1c(n2CCc2ccccc2F)CC2CCC1N2C` (stereo not drawn) [Example 43, 5-[2-(2-fluorophenyl)ethyl]-2,11-dimethyl-5,6,7,8,9,10-hexahydro-7,10-epiminocyclohepta[b]indole] were 202% and 7.64 µM.
Taken in the same sequence, the figures for `Cc1ccc2c(c1)c1c(n2CCc2ccc(Cl)cc2)C[C@H]2CC[C@@H]1N2C` [Example 44, (7R,10S)-5-[2-(4-chlorophenyl)ethyl]-2,11-dimethyl-5,6,7,8,9,10-hexahydro-7,10-epiminocyclohepta[b]indole] were 291% and 3.31 µM.
Taken in the same sequence, the figures for `Cc1ccc(/C=C/n2c3c(c4cc(C)ccc42)[C@@H]2CC[C@H](C3)N2C)cc1` [Example 59, (7R,10S)-2,11-dimethyl-5-[(E)-2-(4-methylphenyl)vinyl]-5,6,7,8,9,10-hexahydro-7,10-epiminocyclohepta[b]indole] were 202% and 4.14 µM.

Values taken from patent US9983218B2, “Indole and indoline derivatives and methods of use thereof” (AbbVie Inc., priority 2008, dated 2018).
